# B1: Activin A: a stimulator of mutant ACVR1; R&D (protein, UniProt P08476 311-426, looked up)
# Inhibin beta A chain: GLECDGKVNICCKKQFFVSFKDIGWNDWIIAPSGYHANYCEGECPSHIAGTSGSSLSFHSTVINHYRMRGHSPFANLKSCCVPTKLRPMSMLYYDDGQNIIKKDIQNMIVEECGCS
# modifications: Inhibin beta A chain
# notes: a stimulator of mutant ACVR1; R&D
# How the values were obtained:
# [1] = system: PAX3-GFP iPS cells; assay: Induction of presomitic mesoderm cells (PSM) from human iPS cells, FACS for DLL1 and PAX3-GFP; assay type: cell-based; conditions: single factor, 10 μM CHIR99021, CDM basal medium, 4 days
# Method: Fluorescence-activated cell sorting (FACS) was performed by AriaII (BD) according to the manufacturer's protocol. Intracellular flow cytometry analysis was also performed by AriaII (BD) according to the manufacturer's protocol. Briefly, cells were fixed and permeabilized prior to the antibody staining. The expression rate of each differentiation marker was calculated by comparing that of iPSCs or induced somite cells. To minimize the effect of growth factors secreted from feeder cells or contained in a culture medium, SNL feeders were removed from an iPS cell culture, and human iPS cells were seeded onto matrigel (BD, Bedford, MA, USA) coated dishes (1.3×10^6 cells/10-cm dish). The iPS cells were cultured under feeder-free condition with […]1 medium (STEMCELL Technology, Vancouver, Canada) for 3 days. The iPS cells were then cultured in CDM basal medium supplemented with one of four factors or the appropriate combination of the four factors for 4 days (FIG. 2B). The added factors are as follows. […] To detect the induction efficiency of presomitic mesoderm cells, the cell population positive for DLL1, a surface marker for a presomitic mesoderm cell and the posterior portion of somite, and negative for PAX3-GFP, showing a newly formed and segmented somite cell, were detected by FACS (FIG. 2C). […]
# [2] = system: DLL1+ presomitic mesoderm cells; assay: Induction of somite cells (SM) from presomitic mesoderm cells; assay type: cell-based, human; conditions: for PAX3-GFP+ cells: four days culture, FACS
# Method: IPS cells were cultured in SCDF condition of Example 1 for 4 days, and a total of 1.0×10^5 DLL1^+ presomitic mesoderm cells sorted by FACS were seeded onto one well of a matrigel-coated 12-well plate and subsequently underwent the induction of somite cells (FIG. 3A). The induction of somite cells was carried out for 4 days in CDM basal medium supplemented with SB431542 and/or 5 μM CHIR99021. The medium was changed at day 3 of the induction of somite cells. The expression of PAX3-GFP was used as a somite cell marker. The added factors and their concentrations are as follows: • S10: SB431542 10 μM • C1: CHIR99021 1 μM • C5: […]20: FGF2 20 ng/ml • […]: IWR1 10 μM
# [3] = system: dermomyotome cells; assay: Induction of myotome cells (MYO) from dermomyotome cells; assay type: cell-based, human; conditions: 5 μM CHIR99021, 30 days; number of MYOD- and MYOG-positive cells
# Method: We next tried to induce myotome cells directly from dermomyotome cells obtained in the above (3). The medium of the dermomyotome cell culture obtained in (3) was replaced with CDM basal medium supplemented with 5 μM of CHIR99021, and the cell culture was further cultured. The medium was changed every 3 days, and the culture was performed for 30 days. A small amount of cultured cells was collected every 6 days, and the expression of myogenic markers MYOD, MYOG and PAX7 was examined over time. Induction of the myogenic markers was found 18 to 30 days after the replacement of the medium. On the other hand, the expression of the dermomyotome cell marker ALX4 was decreased in a time dependent manner (FIG. 4D). The expression of MYOD and MYOG was also determined by immunocytochemistry. The induction efficiency from dermomyotome cells into myotome cells was estimated at approximately 22% based on the number of MYOD- and MYOG-positive cells.
# [4] = system: heterotopic ossification; conditions: reported, Hino et al., 2017; cited from earlier work
# [5] = system: somite cell-derived mesenchymal stromal cells induced from FOP-iPS cells; assay: 2D chondrogenic induction of FOP-iPS cell-derived mesenchymal stromal cells; assay type: cell-based, human; conditions: 5 days
# Method: (§1) The GAG content in pellets was quantified with the Blyscan™ Glycosaminoglycan Assay Kit (Biocolor Ltd., Belfast, UK). The DNA content was quantified using the PicoGreen™ dsDNA Quantitation Kit (Invitrogen).
# (§2) A total of 1.5×10^5 induced mesenchymal stromal cells or sclerotome cells were suspended in 5 μL of chondrogenic basal. medium (DMEM: F12 (Invitrogen), 1% (v/v) ITS+Premix (BD Biosciences, San Jose, CA, USA), 0.1 μM dexamethasone (WAKO), 0.17 mM L-Ascorbic acid 2-phosphate sesquimagnesium salt hydrate (Sigma), 0.35 mM Proline (Sigma), 0.15% (v/v) glucose (Sigma), 1 mM Na-pyruvate, 2 mM GlutaMax (Invitrogen) and 1% (v/v) FBS), and subsequently transferred to one well of a fibronectin-coated 24-well plate (BD Biosciences). After one hour of incubation at 37° C. in 5% CO2, cells formed micromass.
# (§3) Then, the micromass was cultured in 1 ml of chondrogenic basal medium supplemented with 10 ng/ml BMP7 (R&D) and 10 ng/ml TGFβ3 (R&D) with or without 30 ng/ml Activin A (R&D) at 37° C. in 5% CO2 for 5 days.
# The micromass induced from somite cell-derived mesenchymal stromal cells from FOP-iPS cells was also cultured in 1 mL of chondrogenic basal medium supplemented with 30 ng/ml Activin A (R&D) with/without 10 nM R667 (Toronto Research Chemicals, Toronto, ON, Canada) or 10 nM Rapamycin (MedChem Express, Monmouth Junction, NJ, USA).
# (§4) Differentiation properties of obtained cells were analyzed by RT-qPCR analysis, glycosaminoglycans (GAG) quantification and Alcian Blue staining. Briefly, induced cells were fixed for 30 minutes with 4% paraformaldehyde (WAKO), rinsed with PBS, and then stained overnight with Alcian Blue solution (1% Alcian Blue, pH1) (MUTO PURE CHEMICAL CO., LTD, Tokyo, Japan).
# [6] = system: somite cell-derived sclerotome cells; assay: 2D chondrogenic induction of FOP-iPS cell-derived sclerotome cells; assay type: cell-based, human; conditions: 30 ng/ml Activin A, 5 days
# Method: as §1, §2, §3, §4
molecule,measurement,setting,value
"Cc1c[nH]c(-c2cnc(NCCNc3ccc(C#N)cn3)nc2-c2ccc(Cl)cc2Cl)n1 [CHIR99021, 6-[2-[4-(2,4-Dichlorophenyl)-5-(4-methyl-1H-imidazol-2-yl)pyrimidin-2-ylamino]ethylamino]pyridine-3-carbonitrile]",DLL1+/PAX3-GFP- cells (induction efficiency),[1],56.3±3.1%
same,PAX3-GFP+ cells,[2]; 5 μM CHIR99021 (C5),70.7±0.1%
same,PAX3-GFP+ cells,[2]; 10 μM CHIR99021 (C10),0.3±0.0%
same,PARAXIS and MEOX1 expressions,"[2]; S10C5 compared with S10I10 or S10, 4 days, RT-qPCR",highly induced
same,PARAXIS-expressing cells,[2]; immunohistochemistry using anti-PARAXIS (TCF15) antibody,found
same,induction efficiency from dermomyotome cells into myotome cells,[3],approximately 22%
CC1(C)CCC(C)(C)c2cc(Cn3cccn3)c(/C=C/c3ccc(C(=O)O)cc3)cc21 [R667],inhibition of heterotopic ossification,[4],potent inhibitors
same,enhanced chondrogenesis by Alcian Blue staining,"[5]; 10 nM, with 30 ng/ml Activin A",inhibition of the enhanced chondrogenesis was also confirmed
same,enhancement of glycosaminoglycan (GAG) production,"[5]; 10 nM, with 30 ng/ml Activin A, GAG/DNA",significantly inhibited
same,enhancement of chondrogenic marker expressions,"[5]; 10 nM, with 30 ng/ml Activin A, RT-qPCR",significantly inhibited
NC(=O)c1ccc(-c2nc(-c3ccc4c(c3)OCO4)c(-c3ccccn3)[nH]2)cc1 [SB431542],PAX3-GFP+ cells,[2]; 10 μM SB431542 (S10),52.1±0.8%
B1,"chondrogenic marker expressions, GAG production and Alcian Blue staining in FOP-iPS-derived vs resFOP-iPS-derived cells",[6],no difference
same,"chondrogenesis (chondrogenic markers, GAG production) in FOP-iPS-derived vs resFOP-iPS-derived cells",[5]; 30 ng/ml Activin A,enhancement of the chondrogenesis was observed
